Experiments:
[1] = physchem; format: physicochemical; conditions: pH 7.4
Protocol: The plate was agitated for 2 h at 22°C and 500 rpm. […] The different layers were analyzed to obtain a logD value.

[2] = for Autosampler stability (48 h), Low / Stability, murine whole-blood (-80 °C freeze-thaw), Low / Stability, murine whole-blood (ice, 2 h), Low: 10 ng/mL; for Autosampler stability (48 h), High / IV formulation stability, High / Oral formulation stability, High / Stability, murine whole-blood (-80 °C freeze-thaw), High / Stability, murine whole-blood (ice, 2 h), High: 4000 ng/mL; for IV formulation stability, High / Oral formulation stability, High / Stability, murine whole-blood (ice, 2 h), Low / Stability, murine whole-blood (ice, 2 h), High: 2 h; for Stability, murine whole-blood (-80 °C freeze-thaw), Low / Stability, murine whole-blood (-80 °C freeze-thaw), High / Stability, murine whole-blood (ice, 2 h), Low / Stability, murine whole-blood (ice, 2 h), High: mouse
Protocol: The LC-MS/MS method used was partially validated by assessing recovery from mouse whole-blood, bench-top stability (3 h), auto-sampler stability (48 h), formulation stability (oral and IV, 2 h), freeze-thaw stability (3 cycles), and matrix effects (details in Supplementary Material). Partial method validation, comprising several tests to determine whether the compounds were stable in each possible experimental situation involved with sample collection, storage, and processing, was performed. These tests included: (i) compound stability in mouse whole-blood (on ice and at -80°C), (ii) compound stability in the autosampler, (iii) compound stability in oral and intravenous formulations, (iv) matrix effects (ME), and (v) compound recovery. In this study, stability is reported as a percentage, reflecting the stability of the compound in relation to a fresh sample prepared just before analysis.

SMILES	logD [1]	Autosampler stability (48 h), Low [2] [%]	Autosampler stability (48 h), High [2] [%]	IV formulation stability, High [2] [%]	Oral formulation stability, High [2] [%]	Stability, murine whole-blood (-80 °C freeze-thaw), Low [2] [%]	Stability, murine whole-blood (-80 °C freeze-thaw), High [2] [%]	Stability, murine whole-blood (ice, 2 h), Low [2] [%]	Stability, murine whole-blood (ice, 2 h), High [2] [%]
CCCCCCCCCCOc1cc2c(=O)c(C(=O)NCCNCCO)cn(CC)c2cc1OCC [RMB043]	0.84	99.8	99.1	93.1	89.0	91.3	92.5	102.4	109.0
CCCCCCCCCCOc1cc2c(=O)c(C(=O)NCCOCCO)cn(CC)c2cc1OCC [RMB041]	0.48	92.1	94.1	90.3	98.0	99.2	98.7	89.2	91.2
CCCCCCCCCCOc1cc2c(=O)c(C(=O)NCCOCCO)cn(CCO)c2cc1OCC [RMB073]	0.36	105.3	102.0	98.8	89.3	89.5	97.3	87.6	92.3
